Assay: 34-day oral dosing in BBZDR rats (obesity and Type II diabetes model): body weight and metabolic parameters
Type: in vivo
Settings: for Adipose Mass / Adipose Mass, percent of placebo response / Core Temperature / Core Temperature, percent of placebo response / Food Consumption / Food Consumption, percent of placebo response / Incidence of Glycosuria (Days) / Incidence of Glycosuria (Days), incidence rate / Psoas Mass / Psoas Mass, percent of placebo response / Water Consumption / Water Consumption, percent of placebo response / Incidence of Diabetes: 34 days; for Incidence of Diabetes: animals
Description: The effects of Compound HE on body weight and metabolism were studied further in the BBZDR rat, a genetic model of obesity and Type II diabetes (Biomedical Research Models, Inc, Worcester, Mass.). BBZDR rats are a cross between the BBDR/W or strain and the fa/fa rat. In BBZDR rats, diabetes occurs in 98% of obese males at an average age of onset of 68±2 days. […] The pancreatic islets of the young obese diabetic males are profoundly enlarged with β cell hyperplasia and mild fibrosis. Studies of pancreatic sections immunostained for insulin and the GLUT-2 glucose transporter reveal focal reduction in β cell insulin content and a generalized reduction in GLUT-2 staining of β cell surface membranes. Lymphocytic insulitis is not detected in either lean or obese rats. In the absence of lymphopenia and autoimmunity, the lean BBZDR rats never become diabetic, and their pancreatic islets are normal in all respects.
Compound HE was administered to male BBZDR rats (48–60 days of age) via oral gavage for a period of 34 days. There were three treatment groups, each with 6 rats/group: a) placebo (1% carboxy methyl cellulose [CMC]), b) Compound HE at 100 mg/kg/day in 1% CMC, and c) Compound HE at 300 mg/kg/day in 1% CMC. The rats were gavaged twice daily for the entire period of the study. Body weight, food intake, fluid intake, and core body temperature were monitored on a daily basis. In addition, the rats were observed twice daily for any gross behavioral/phenotypic changes. Early in the study, two animals in the 300 mg/kg/day-dose group died from trauma secondary to oral gavage (confirmed during necropsy) and were excluded from all analyses.
On Day 21, after an overnight fast, whole blood, serum and plasma samples were collected from anesthetized animals. Prior to the termination of the study, tissue and plasma samples were collected from overnight-fasted animals for histological and biochemical analyses.

CC(C)CC(N[C@@H](Cc1cncn1Cc1cc(Cl)cc(Cl)c1)C(=O)O)C(=O)O (single isomer, unassigned) [HE, 2-[1-Carboxy-2-[3-(3,5-dichloro-benzyl)-3H-imidazol-4-yl]-ethylamino)4-methyl-pentanoic acid]
fluid intake, less than placebo (100 mg-treated group): 5% | food intake, less than placebo (100 mg-treated group): 5% | Fasted Glucose, Day 34, percent of placebo response (100 mg/kg/day oral gavage): (100%) | Fasted Insulin, Day 34 (100 mg/kg/day oral gavage): 8.4 ± 7.0 ng/mL | Fasted Insulin, Day 34, percent of placebo response (100 mg/kg/day oral gavage): (62%)^a | Fasted Leptin, Day 34 (100 mg/kg/day oral gavage): 99 ± 22 ng/mL | Fasted Leptin, Day 34, percent of placebo response (100 mg/kg/day oral gavage): (102.7%) | Fasted Total Cholest., Day 34 (100 mg/kg/day oral gavage): 117 ± 9 mg/dL | Fasted Total Cholest., Day 34, percent of placebo response (100 mg/kg/day oral gavage): (88%) | Total Fasted Triglyc., Day 34 (100 mg/kg/day oral gavage): 409 ± 6 mg/dL | Total Fasted Triglyc., Day 34, percent of placebo response (100 mg/kg/day oral gavage): (82%) | Weight Gain thru Day 34 (100 mg/kg/day oral gavage): 123 ± 3.4 g | Weight Gain thru Day 34, percent of placebo response (100 mg/kg/day oral gavage): (83.9%) | Adipose Mass (100 mg/kg/day oral gavage): 48.03 ± 1.86 g | Adipose Mass, percent of placebo response (100 mg/kg/day oral gavage): (94%) | Core Temperature (100 mg/kg/day oral gavage): 98.4 ± 0.13 F. | Core Temperature, percent of placebo response (100 mg/kg/day oral gavage): (100%) | Food Consumption (100 mg/kg/day oral gavage): 1283 ± 50.3 g | Food Consumption, percent of placebo response (100 mg/kg/day oral gavage): (94.4%) | Incidence of Glycosuria (Days) (100 mg/kg/day oral gavage): 31/198 | Incidence of Glycosuria (Days), incidence rate (100 mg/kg/day oral gavage): (15.7%) | Psoas Mass (100 mg/kg/day oral gavage): 1.30 ± 0.09 g | Psoas Mass, percent of placebo response (100 mg/kg/day oral gavage): (113%) | Water Consumption (100 mg/kg/day oral gavage): 1388 ± 73.5 mL | Water Consumption, percent of placebo response (100 mg/kg/day oral gavage): (94.6%) | Incidence of Diabetes (100 mg/kg/day oral gavage): 2/6 | fluid intake, less than placebo (300 mg-treated group): 15% | food intake, less than placebo (300 mg-treated group): 8% | Fasted Glucose, Day 34, percent of placebo response (300 mg/kg/day oral gavage): (94%) | Fasted Insulin, Day 34 (300 mg/kg/day oral gavage): 7.7 ± 4.1 ng/mL | Fasted Insulin, Day 34, percent of placebo response (300 mg/kg/day oral gavage): (57%)^a | Fasted Leptin, Day 34 (300 mg/kg/day oral gavage): 92 ± 5.3 ng/mL | Fasted Leptin, Day 34, percent of placebo response (300 mg/kg/day oral gavage): (76%) | Fasted Total Cholest., Day 34 (300 mg/kg/day oral gavage): 104 ± 5 mg/dL | Fasted Total Cholest., Day 34, percent of placebo response (300 mg/kg/day oral gavage): (78%) | Total Fasted Triglyc., Day 34 (300 mg/kg/day oral gavage): 414 ± 23 mg/dL | Total Fasted Triglyc., Day 34, percent of placebo response (300 mg/kg/day oral gavage): (82%) | Weight Gain thru Day 34 (300 mg/kg/day oral gavage): 125 ± 8.3 g | Weight Gain thru Day 34, percent of placebo response (300 mg/kg/day oral gavage): (82.5%) | Adipose Mass (300 mg/kg/day oral gavage): 48.43 ± 0.55 g | Adipose Mass, percent of placebo response (300 mg/kg/day oral gavage): (94%) | Core Temperature (300 mg/kg/day oral gavage): 98.4 ± 0.20 F. | Core Temperature, percent of placebo response (300 mg/kg/day oral gavage): (100%) | Food Consumption (300 mg/kg/day oral gavage): 1249 ± 26.8 g | Food Consumption, percent of placebo response (300 mg/kg/day oral gavage): (91.9%) | Incidence of Glycosuria (Days) (300 mg/kg/day oral gavage): 12/162 | Incidence of Glycosuria (Days), incidence rate (300 mg/kg/day oral gavage): (7.4%) | Psoas Mass (300 mg/kg/day oral gavage): 1.21 ± 0.10 g | Psoas Mass, percent of placebo response (300 mg/kg/day oral gavage): (105%) | Water Consumption (300 mg/kg/day oral gavage): 1271 ± 101.7 mL | Water Consumption, percent of placebo response (300 mg/kg/day oral gavage): (86.7%) | Incidence of Diabetes (300 mg/kg/day oral gavage): 1/4 | gross or histomorphological adverse effects (34 consecutive days of oral dosing): No gross or histomorphological adverse effects | gross abdominal adipose and psoas muscle mass and core body temperature, change between groups (all three groups): no changes | plasma levels of insulin, total cholesterol and triglycerides compared to placebo (both dose groups): lower | body weight gain over the 34 days, less than placebo (both dose groups (100 and 300 mg/kg/day)): approximately 18% | statistical significance of the changes versus placebo (oral administration for 34 days): not statistically significant

From patent publication US7045532B2 (Millennium Pharmaceuticals, Inc., priority 1999, dated 2006)
